# Read-outs that look alike come from different tables or passages of the source. Numbered stars: 1 amine (or outer) side, 2 acyl side, 3 side chain; on linkers, the order of the positions; unused ones are H or OH. Square brackets hold non-standard residues; d marks the D form. Peptide text beside a SMILES is read from it. * marks the point of attachment. X3 = CC(=O)N[C@H]1[C@H](O[C@H]2[C@H](O)[C@@H](O)[C@H](O[C@H]3[C@@H](O)[C@@H](CO)O[C@@H](O[C@H]4[C@H](O)[C@@H](O)[C@H](O[C@H]5[C@@H](O)[C@@H](CO)O[C@@H](O[C@H]6[C@H](O)[C@@H](O)[C@H](O[C@H]7[C@@H](O)[C@@H](CO)O[C@@H](O[C@H]8[C@H](O)[C@@H](O)[C@H](O[C@H]9[C@@H](O)[C@@H](CO)O[C@@H](O[C@H]%10[C@@H](O)[C@@H](CO)O[C@@H](O[C@@H]%11CO[C@@H](OC[C@H](N[*:1])C(=O)[*:2])[C@H](O)[C@H]%11O)[C@@H]%10O)[C@@H]9O)O[C@@H]8C(=O)O)[C@@H]7NC(C)=O)O[C@@H]6C(=O)O)[C@@H]5NC(C)=O)O[C@@H]4C(=O)O)[C@@H]3NC(C)=O)O[C@@H]2C(=O)O)O[C@H](CO)[C@H](O)[C@@H]1O[C@@H]1O[C@H](C(=O)O)[C@@H](O)[C@H](O)[C@H]1O; X2 = CC(=O)N[C@H]1[C@H](O[C@H]2[C@H](O)[C@@H](O)[C@H](O[C@H]3[C@@H](O)[C@@H](CO)O[C@@H](O[C@H]4[C@@H](O)[C@@H](CO)O[C@@H](O[C@@H]5CO[C@@H](OC[C@H](N[*:1])C(=O)[*:2])[C@H](O)[C@H]5O)[C@@H]4O)[C@@H]3O)O[C@@H]2C(=O)O)O[C@H](CO)[C@H](OS(=O)(=O)O)[C@@H]1O[C@@H]1O[C@H](C(=O)O)[C@@H](O[C@@H]2O[C@H](CO)[C@H](O)[C@H](O[C@@H]3O[C@H](C(=O)O)[C@@H](O)[C@H](O)[C@H]3O)[C@H]2NC(C)=O)[C@H](O)[C@H]1O; X4 = O=C(O)[C@H]1O[C@@H](O[C@H]2[C@@H](O)[C@@H](CO)O[C@@H](O[C@H]3[C@@H](O)[C@@H](CO)O[C@@H](O[C@@H]4CO[C@@H](*)[C@H](O)[C@H]4O)[C@@H]3O)[C@@H]2O)[C@H](O)[C@@H](O)[C@@H]1O
# Target: T1, Human Neutrophil Cathepsin G (Homo sapiens, UniProt P08311)
# T1 construct: Human Neutrophil Cathepsin G was purchased from Athens; purchased Athens Research & Technology, Inc. (Athens, Georgia)
# T1 sequence (P08311 21-243 limits assumed): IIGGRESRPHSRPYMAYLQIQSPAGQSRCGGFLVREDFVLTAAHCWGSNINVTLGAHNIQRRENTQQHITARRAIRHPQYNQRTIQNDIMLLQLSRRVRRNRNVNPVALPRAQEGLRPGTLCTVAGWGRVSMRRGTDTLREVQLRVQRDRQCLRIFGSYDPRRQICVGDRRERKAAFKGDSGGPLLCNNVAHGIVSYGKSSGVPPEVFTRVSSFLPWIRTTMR
# Assay: BLI (biolayer interferometry) binding assay of immobilized biotinylated compounds with Cathepsin G
# Excerpt: With structurally defined glycopeptides in hand, we aim to better understand the structural features needed for bikunin glycopeptide binding. Cathepsin G (CatG), a neutrophil serine protease, plays a crucial role in regulating various physiological processes, including inflammation, digestion, smooth muscle contraction, and tissue remodeling.[64] While CatG has been reported to interact with CSPG, the structural requirement of CSPG binding has not been established.[25] To measure the binding affinity towards CatG, peptides 5 and glycopeptides 10, 18–21 were biotinylated and immobilized on streptavidin coated sensors for biolayer interferometry (BLI) studies. Biotinylated 50 kDa CS and CS-A were also immobilized on the sensors for comparison. […]
# General procedure of glycopeptide biotinylation
# To a solution of peptide or glycopeptide in DMSO/H 2O (1/1, 0.1 ml) was added NHS-LC-Biotin (4 equiv.) and diisoproylethylamine (pH ~ 8.5). The reaction was incubated at 37 °C for 2 h. Then the mixture was dried in vacuo and purified by HPLC.
# General procedure for BLI binding assay
# The binding assay was performed on the Octet K2 System (Pall ForteBio). The biotinylated compounds were incubated with streptavidin (SA) sensors for 2 min. The sensor was then balanced in the assay buffer (PBS containing 0.005% P20) and dipped into Cathepsin G solution in assay buffer at 2000 nM, 1000 nM, 500 nM, 250 nM concentrations.
# After 5 min of association, the sensor was brought back to the previous assay buffer for a 5 min dissociation step. At the end of the assay, the sensor was regenerated in 2 M NaCl to remove the bound protein. Each measurement was repeated 3 times on the same sensor. The control assay was performed with another sensor loaded with a 2 mM biotin solution.
# Figure S3. Binding of peptide and glycopeptides a) 5, b) 10 , c) 18 , d) 19 , e) 20 , f) 21 , g) commercially available biotinylated 50 kDa CS, and h) 50 kDa CS-A to neutrophil Cathepsin G as measured by BLI ( a-h respectively). The biotinylated compounds (50 nM) were immobilized on streptavidin coated biosensors, and human neutrophil Cathepsin G was captured on biosensors with four concentrations at 2000 nM, 1000 nM, 500 nM, 250 nM.
# Fitting curves were shown in red lines. […]
# [1] = biotinylated compounds immobilized on streptavidin sensors, Cathepsin G at 2000, 1000, 500, 250 nM in PBS containing 0.005% P20, read-out: KD (nM) with Cathepsin G
"Kd (read-out: KD (nM) with Cathepsin G, biotinylated compounds immobilized on streptavidin sensors, Cathepsin G at 2000, 1000, 500, 250 nM in PBS containing 0.005% P20) [nM]",Compound,Kd [1] [nM]
–,CC(C)C[C@H](NC(=O)[C@H](CCC(N)=O)NC(=O)CNC(=O)CNC(=O)CNC(=O)[C@H](CO[C@@H]1OC[C@@H](O[C@@H]2O[C@H](CO)[C@H](O)[C@H](O[C@@H]3O[C@H](CO)[C@H](O)[C@H](O[C@@H]4O[C@H](C(=O)O)[C@@H](O)[C@H](O)[C@H]4O)[C@H]3O)[C@H]2O)[C@H](O)[C@H]1O)NC(=O)CNC(=O)[C@H](CCC(=O)O)NC(=O)[C@H](CCC(=O)O)NC(=O)[C@H](CCC(=O)O)NC(=O)[C@H](CCC(N)=O)NC(=O)[C@@H]1CCCN1C(=O)[C@H](CC(C)C)NC(=O)[C@@H](NC(=O)[C@H](C)N)C(C)C)C(=O)N[C@H](C(=O)N[C@H](C(=O)N[C@@H](CCC(=O)O)C(=O)N[C@H](C(=O)N[C@H](C(=O)N[C@@H](CCCCN)C(=O)N[C@@H](CCCCN)C(=O)N[C@@H](CCC(=O)O)C(=O)N[C@@H](CC(=O)O)C(=O)N[C@@H](CO)C(=O)O)[C@@H](C)O)C(C)C)[C@@H](C)O)C(C)C [Compound 10] (H-AVLPQEEEGS(X4)GGGQLVTEVTKKEDS-OH),650 ± 80
–,CC(=O)N[C@H]1[C@H](O[C@H]2[C@H](O)[C@@H](O)[C@H](O[C@H]3[C@@H](O)[C@@H](CO)O[C@@H](O[C@H]4[C@H](O)[C@@H](O)[C@H](O[C@H]5[C@@H](O)[C@@H](CO)O[C@@H](O[C@H]6[C@H](O)[C@@H](O)[C@H](O[C@H]7[C@@H](O)[C@@H](CO)O[C@@H](O[C@H]8[C@H](O)[C@@H](O)[C@H](O[C@H]9[C@@H](O)[C@@H](CO)O[C@@H](O[C@H]%10[C@@H](O)[C@@H](CO)O[C@@H](O[C@@H]%11CO[C@@H](OC[C@H](NC(=O)CNC(=O)[C@H](CCC(=O)O)NC(=O)[C@H](CCC(=O)O)NC(=O)[C@H](CCC(=O)O)NC(=O)[C@H](CCC(N)=O)NC(=O)[C@@H]%12CCCN%12C(=O)[C@H](CC(C)C)NC(=O)[C@@H](NC(=O)[C@H](C)N)C(C)C)C(=O)NCC(=O)NCC(=O)NCC(=O)N[C@@H](CCC(N)=O)C(=O)N[C@@H](CC(C)C)C(=O)N[C@H](C(=O)N[C@H](C(=O)N[C@@H](CCC(=O)O)C(=O)N[C@H](C(=O)N[C@H](C(=O)N[C@@H](CCCCN)C(=O)N[C@@H](CCCCN)C(=O)N[C@@H](CCC(=O)O)C(=O)N[C@@H](CC(=O)O)C(=O)N[C@@H](CO)C(=O)O)[C@@H](C)O)C(C)C)[C@@H](C)O)C(C)C)[C@H](O)[C@H]%11O)[C@@H]%10O)[C@@H]9O)O[C@@H]8C(=O)O)[C@@H]7NC(C)=O)O[C@@H]6C(=O)O)[C@@H]5NC(C)=O)O[C@@H]4C(=O)O)[C@@H]3NC(C)=O)O[C@@H]2C(=O)O)O[C@H](CO)[C@H](O)[C@@H]1O[C@@H]1O[C@H](C(=O)O)[C@@H](O)[C@H](O)[C@H]1O [Compound 18] (H-AVLPQEEEG[X3]GGGQLVTEVTKKEDS-OH; N-terminus and C-terminus assumed),490 ± 18
49 ± 5,CC(=O)N[C@H]1[C@H](O[C@H]2[C@H](O)[C@@H](O)[C@H](O[C@H]3[C@@H](O)[C@@H](CO)O[C@@H](O[C@H]4[C@@H](O)[C@@H](CO)O[C@@H](O[C@@H]5CO[C@@H](OC[C@H](NC(=O)CNC(=O)[C@H](CCC(=O)O)NC(=O)[C@H](CCC(=O)O)NC(=O)[C@H](CCC(=O)O)NC(=O)[C@H](CCC(N)=O)NC(=O)[C@@H]6CCCN6C(=O)[C@H](CC(C)C)NC(=O)[C@@H](NC(=O)[C@H](C)N)C(C)C)C(=O)NCC(=O)NCC(=O)NCC(=O)N[C@@H](CCC(N)=O)C(=O)N[C@@H](CC(C)C)C(=O)N[C@H](C(=O)N[C@H](C(=O)N[C@@H](CCC(=O)O)C(=O)N[C@H](C(=O)N[C@H](C(=O)N[C@@H](CCCCN)C(=O)N[C@@H](CCCCN)C(=O)N[C@@H](CCC(=O)O)C(=O)N[C@@H](CC(=O)O)C(=O)N[C@@H](CO)C(=O)O)[C@@H](C)O)C(C)C)[C@@H](C)O)C(C)C)[C@H](O)[C@H]5O)[C@@H]4O)[C@@H]3O)O[C@@H]2C(=O)O)O[C@H](CO)[C@H](OS(=O)(=O)O)[C@@H]1O[C@@H]1O[C@H](C(=O)O)[C@@H](O[C@@H]2O[C@H](CO)[C@H](O)[C@H](O[C@@H]3O[C@H](C(=O)O)[C@@H](O)[C@H](O)[C@H]3O)[C@H]2NC(C)=O)[C@H](O)[C@H]1O [Compound 19] (H-AVLPQEEEG[X2]GGGQLVTEVTKKEDS-OH; N-terminus and C-terminus assumed),–

# Source: article PMC11772155, “Solid-Phase-Supported Chemoenzymatic Synthesis and Analysis of Chondroitin Sulfate Proteoglycan Glycopeptides” (Angewandte Chemie (International ed. in English), 2024)
